In this test the target is T1, CCR-2 receptor (Homo sapiens, UniProt P41597).
T1 construct: the endogenous CCR-2 receptor on various cell types including monocytes, THP-1 cells; endogenous in cells; host or cells: monocytes, THP-1 cells (or unnamed eukaryotic cells expressing the cloned receptor)
The experiment in a line: CCR-2 binding assay (inhibition of 125I-MCP-1 binding). Particulars: qualitative comparison among separated isomers; assay not given. The procedure: Receptor affinity in a CCR-2 binding assay was determined by measuring inhibition of ^125I-MCP-1 to the endogenous CCR-2 receptor on various cell types including monocytes, THP-1 cells, or after heterologous expression of the cloned receptor in eukaryotic cells. The cells were suspended in binding buffer (50 mM HEPES, pH 7.2, 5 mM MgCl2, 1 mM CaCl2, and 0.50% BSA) with and added to test compound or DMSO and ^125I-MCP-1 at room temperature for 1 h to allow binding. The cells were then collected on GFB filters, washed with 25 mM HEPES buffer containing 500 mM NaCl and cell bound ^125I-MCP-1 was quantified.

T1 sequence (P41597 whole entry): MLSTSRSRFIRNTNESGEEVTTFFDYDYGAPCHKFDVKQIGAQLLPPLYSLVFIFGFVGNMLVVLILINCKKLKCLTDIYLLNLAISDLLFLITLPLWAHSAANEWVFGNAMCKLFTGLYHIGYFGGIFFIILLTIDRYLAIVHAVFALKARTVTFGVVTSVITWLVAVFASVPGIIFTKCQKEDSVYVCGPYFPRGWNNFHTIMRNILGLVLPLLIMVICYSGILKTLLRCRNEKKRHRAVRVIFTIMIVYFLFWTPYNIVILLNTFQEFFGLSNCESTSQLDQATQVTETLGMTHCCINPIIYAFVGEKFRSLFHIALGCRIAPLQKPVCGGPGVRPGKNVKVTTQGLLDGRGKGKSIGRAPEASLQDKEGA

On to `CCOC(=O)c1cccc(C2CCN([C@@H]3CC[C@](C(C)=O)(C(=O)N4COc5ccc(C(F)(F)F)cc5C4)C3)CC2)c1` (single isomer, unassigned) [Peak 3], for which the “potency relative to other stereoisomers” value is “best potency”.

The record behind these values is patent US20070238723A1, “Benzoxazinyl-amidocyclopentyl-heterocyclic modulators of chemokine receptors” (priority 2004, published 2007).
